Data reported in US20260364213A1, “RADIOLABELED COMPOUNDS OF TRIMETHOPRIM AND USES THEREOF” (THE TRUSTEES OF THE UNIVERSITY OF PENNSYLVANIA, priority 2023, published 2026).
“Also recorded” adds a separate entry of the source.

Experiments:
[1] = In vitro stability in RPMI 1640 medium; format: physicochemical; settings: 37 °C, up to 6 hours, radio-HPLC
Protocol: The specific activity of [^211At]At-TMP and [^125I]I-TMP was determined by comparison of radioactivity to the area under 288-nm ultraviolet light peak on radio-HPLC. The in vitro stability of [^211At]At-TMP was examined with incubation in Roswell Park Memorial Institute (RPMI) 1640 medium at 37 °C for up to 6 hours, followed by radio-HPLC analysis.

[2] = biological target: T1, eDHFR-YFP (Escherichia coli, UniProt P0ABQ4); experiment: Radioligand binding to eDHFR-YFP expressing cells; set-up: species or system E. coli
T1 sequence (P0ABQ4 1-159): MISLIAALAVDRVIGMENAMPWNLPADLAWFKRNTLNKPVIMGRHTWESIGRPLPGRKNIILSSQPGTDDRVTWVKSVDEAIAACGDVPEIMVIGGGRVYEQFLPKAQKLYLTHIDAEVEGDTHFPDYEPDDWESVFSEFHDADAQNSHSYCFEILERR
Protocol: Due to the high specific activity of [^211At]At-TMP that limits its working concentration to pM range, [^125I]I-TMP was used for saturation binding studies to determine Bmax.
eDHFR-YFP-positive I45 and SKOV3 cells were plated on 96-well plates (Corning #9102) at the density of 25,000 cells/well and 40,000 cells/well, respectively, in complete growth media 24 hours before the assay. […] After incubation at 37 °C for 90 minutes, the wells were aspirated and washed twice with ice-cold PBS. The radioactivity in each well was measured with a Perkin Elmer Wizard gamma counter. The assay was performed three times in triplicates. […] See, Swillens, Molecular pharmacology. 1995; 47(6):1197-203. The corresponding EC50 values were plotted against the receptor concentration/2 to determine the Kd. See, Hulme, British journal of pharmacology. 2010; 161(6):1219-37. The Bmax values were correlated with the total YFP florescence from the wells, with a correction factor of 2.5 and 2.2 for membrane-bound eDHFR-YFP in I45 and SKOV3, respectively, in order to account for decreased fluorescence per molecule from addition of the membrane localization signal to YFP. See, Wu, Science. 2005; 310(5746):310-4; and Bakholdina, Molecules. 2021; 26(13).
For determination of the Kd of [^211At]At-TMP, the binding assay protocol was repeated in I45 and SKOV3 cells expressing cytoplasmic eDHFR-YFP, using 150 μL of 0.06-60 nM [^125I]I-TMP±10 μM TMP for half of each 96-well plate and 50-260 μL of […] [^211At]At-TMP±10 μM TMP for the remaining half. The Bmax of each plate determined from [^125I]I-TMP binding was divided by the assay volumes used for [^211At]At-TMP to calculate the total receptor concentration ([RT]) in each [^211At]At-TMP well. The ligand depletion (δ) in each [^211At]At-TMP well was obtained by dividing the bound radioactivity by total added radioactivity. The assay was performed four times in triplicates. As derived in Supplemental Methods 1, δ^−1 was plotted against [RT]^−1 to determine the Kd as the slope of the linear best-fit line.
Supplemental Method 1. Measurement of the dissociation constant (Kd) of [^211At]At-TMP binding to eDHFR under non-saturating, ligand-depleting conditions. When [Ligand]<<Kd, ligand depletion (6) at equilibrium is
where [R] is the free receptor concentration and [RT]is the total receptor concentration. Since 6 is non-zero, taking the reciprocal of both sides of the equation yields
[formula] • If a δ^−1 vs. [RT]^−1 graph where y=δ^−1 and x=[RT]^−1 is plot,
Therefore, the slope of the linear best-fit line represents the Kd and the y-intercept is 1.

[3] = tested on: I45 cells; experiment: Cytotoxicity in I45 cells with subcellular eDHFR-YFP; format: cell-based, human; settings: for RBE: ref. cytoplasmic
Protocol: (§1) Wild-type and eDHFR-YFP-expressing I45 and SKOV3 cells were seeded on 96-well plates (Corning #3603) at the density of 1,000 cells/well and 3,000 cells/well, respectively, in complete growth media 24 hours before the assay. The following five treatment conditions were applied in complete growth media: 200 μCi/mL ~15 μCi/mL [^211At]At-TMP, 120 μCi/mL-15 μCi/mL free ^211At, 120 μCi/mL-15 μCi/mL [^211At]At-TMP+10 μM TMP, 10 nM-1 μM doxorubicin, and 40 μM−1 mM TMP. After 72 hours of incubation, the surviving fraction of the cells was quantified using CellTiter-Glo (Promega #G9243). See, Makvandi, Molecular cancer therapeutics. 2019; 18(7):1195-204. The assay was performed three times in triplicates. The effective concentration for 50% cell death (EC50) was determined for each treatment condition by fitting the surviving fractions into a non-linear sigmoidal dose-response curve. For eDHFR-YFP-positive cells, the [^211At]At-TMP treatment concentrations were converted to the number of ^211At decays/cell, using the median number of receptors/cell (obtained from YFP fluorescence) and Kd of [^211At]At-TMP. See, Lee, Journal of nuclear medicine. 2020; 61(6):850-6.
(§2) For comparison to the nuclear S-values, the observed cytotoxicity per ^211At decay was also expressed relative to cytoplasmic eDHFR-YFP. […] Finally, the ratio between the isolated cytotoxicity and nuclear S-value was calculated as the RBE for eDHFR-YFP in each subcellular compartment.
(§3) Supplemental Method 2. Calculation of the relative cytotoxicity of ^211At decay in different subcellular compartments. • By the linear-quadratic model for targeted alpha therapy,
(§4) (Survival)=e^−αD-βD^2≈e^−αD • Let N=number of ^211At decays/cell at EC50. Then, the following is obtained:
(§5) ln(0.5)=−αD=−TN • where T is the product of S-value and α, representing cytotoxicity per decay. Let F=fraction of eDHFR in each subcellular compartment. Then, the following can be written:
(§6) [formula] • where capital letters denote the microscopically observed subcellular location of eDHFR and lowercase letters denote the genetically targeted location of eDHFR.
(§7) The measured values of F (FIG. 19) and N (FIG. 28C) were then used to solve for T. DNA-targeted eDHFR observed in the nucleus is assumed to be 100% DNA-bound, and for SKOV3, Nc≈Nm is applied based on the lack of significant difference in EC50.
(§8) Finally, the T values are normalized with Tc to obtain the relative cytotoxicity of ^211At decay in each subcellular compartment compared to the cytoplasm.

[4] = tested on: SKOV3 cells; experiment: Cytotoxicity in SKOV3 cells with subcellular eDHFR-YFP; format: cell-based, human; settings: for RBE: ref. cytoplasmic
Protocol: as §1, §2, §3, §4, §5, §6, §7, §8

[5] = tested on: I45 and SKOV3 cells; experiment: Cytotoxicity in wild-type and eDHFR-YFP-expressing I45 and SKOV3 cells; format: cell-based, human
Protocol: After 72 hours of incubation, the surviving fraction of the cells was quantified using CellTiter-Glo (Promega #G9243). See, Makvandi, Molecular cancer therapeutics. […] The assay was performed three times in triplicates. […] See, Lee, Journal of nuclear medicine.

[6] = tested on: hamster fibroblasts; settings: predominantly nuclear lead-212 vs predominantly cytoplasmic polonium-210; cited from earlier work

Compound: COc1cc(Cc2cnc(N)nc2N)cc([At])c1OC [[^211At]At-TMP]
- in vitro stability in aqueous media [1]: stable at 37 °C in aqueous media
- binding affinity compared to [^125I]I-TMP ([2]; I45 and SKOV3 cells): lower binding affinity
- Kd ([2]; I45 and SKOV3 cells): 2.5 to 4.8 nM
- Kd ([2]; I45 cells): 4.8 ± 0.1 nM
- Kd ([2]; SKOV3 cells): 2.5 ± 0.2 nM
- relative cytotoxicity with reference to cytoplasmic eDHFR ([3]; I45, DNA-bound): 10
- RBE ([3]; I45, DNA-bound): 3.1
- cytotoxicity, membrane-bound compared to cytoplasmic eDHFR ([3]; I45, P=0.005): higher cytotoxicity compared to cytoplasmic eDHFR
- relative cytotoxicity with reference to cytoplasmic eDHFR ([3]; I45, membrane-bound): 2.8
- RBE ([3]; I45, membrane-bound): 3.5
- relative cytotoxicity with reference to cytoplasmic eDHFR ([3]; I45, nuclear): 7.4
- RBE ([3]; I45, nuclear): 2.3
- relative cytotoxicity with reference to cytoplasmic eDHFR ([4]; SKOV3, DNA-bound): 13
- RBE ([4]; SKOV3, DNA-bound): 3.2
- relative cytotoxicity with reference to cytoplasmic eDHFR ([4]; SKOV3, membrane-bound): 1.0
- RBE ([4]; SKOV3, membrane-bound): 1.4
- relative cytotoxicity with reference to cytoplasmic eDHFR ([4]; SKOV3, nuclear): 8.5
- RBE ([4]; SKOV3, nuclear): 2.0
- cytotoxicity in eDHFR-expressing compared to wild-type cells ([5]; 72 h): significantly higher cytotoxicity
- cytotoxicity per bound decays/cell, DNA-bound and nuclear eDHFR ([5]; DNA-bound P=0.017 I45, P=0.012 SKOV3, nuclear P=0.0006 I45, P=0.004 SKOV3): the highest cytotoxicity was observed with DNA-bound eDHFR (P=0.017 in I45 and P=0.012 in SKOV3), followed by nuclear eDHFR
- pharmacologic cytotoxicity ([5]; up to 34 μM (so in the source)): absence of pharmacologic cytotoxicity
- difference in cytotoxicity wild-type vs eDHFR-expressing, blocked ([5]; with 10 μM cold TMP): disappearance; also recorded: comparable across the wild-type and eDHFR-YFP-expressing cells

Compound: lead-212
- RBE relative to gamma irradiation [6]: 4
